Starred links: 1 amine or outer side, 2 acyl side, 3 side chain; linkers in the order of their positions; H or OH if unused. Residues, ends and D or L forms follow the SMILES beside them. *: point of attachment. AMC = Cc1cc(=O)oc2cc(N*)ccc12; Morpholide = C1CN(*)CCO1; CO = O=C([*:1])[*:2]
Key:
[1] = molecular target: T1, endoplasmic reticulum Ca2+-ATPase (SERCA), SR vesicles from rabbit skeletal muscle (Oryctolagus cuniculus, UniProt P04191); assay: SERCA inhibition: 45Ca2+ uptake to sarcoplasmic reticulum vesicles; assay type: biochemical; settings: mean (n=3) ± standard error; 5 μg/ml SR protein, free Ca2+ 100 nM, 4 min uptake; read-out: IC50 (50% inhibition of 45Ca2+ uptake to SR vesicles)
T1 construct: sarcoplasmic reticulum (SR) vesicles prepared from rabbit skeletal muscle; from tissue; host or cells: rabbit skeletal muscle sarcoplasmic reticulum vesicles
T1 sequence (P04191 1-994 isoform P04191-2): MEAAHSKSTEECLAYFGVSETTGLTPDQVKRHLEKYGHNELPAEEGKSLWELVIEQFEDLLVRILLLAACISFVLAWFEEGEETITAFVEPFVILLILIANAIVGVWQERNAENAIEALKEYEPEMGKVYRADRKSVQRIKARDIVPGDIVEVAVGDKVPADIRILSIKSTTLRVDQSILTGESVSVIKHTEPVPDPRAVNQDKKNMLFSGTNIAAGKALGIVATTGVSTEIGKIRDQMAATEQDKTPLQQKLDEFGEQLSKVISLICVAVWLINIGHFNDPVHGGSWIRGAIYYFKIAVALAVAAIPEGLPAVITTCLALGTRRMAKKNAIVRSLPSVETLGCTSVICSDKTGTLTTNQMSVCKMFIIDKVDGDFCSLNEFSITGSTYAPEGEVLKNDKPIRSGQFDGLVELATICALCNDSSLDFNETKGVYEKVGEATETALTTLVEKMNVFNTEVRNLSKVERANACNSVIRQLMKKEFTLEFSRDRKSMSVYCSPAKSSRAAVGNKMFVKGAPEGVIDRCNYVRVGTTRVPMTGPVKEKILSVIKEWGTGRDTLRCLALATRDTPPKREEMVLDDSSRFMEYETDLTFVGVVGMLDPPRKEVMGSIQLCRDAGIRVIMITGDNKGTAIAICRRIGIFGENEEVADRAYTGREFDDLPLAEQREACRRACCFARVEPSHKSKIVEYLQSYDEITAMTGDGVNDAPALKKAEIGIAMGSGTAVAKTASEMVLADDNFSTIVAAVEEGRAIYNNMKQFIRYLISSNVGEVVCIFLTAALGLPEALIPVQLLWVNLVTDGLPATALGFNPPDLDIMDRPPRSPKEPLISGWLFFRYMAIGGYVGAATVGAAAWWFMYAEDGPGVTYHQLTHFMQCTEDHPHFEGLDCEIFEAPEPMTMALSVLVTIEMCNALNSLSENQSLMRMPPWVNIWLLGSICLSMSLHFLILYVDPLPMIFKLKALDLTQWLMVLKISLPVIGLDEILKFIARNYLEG
Description: The primary amine-containing thapsigargin analogs of the invention have endoplasmic reticulum Ca^2+-ATPase inhibitory activity. This activity is measured as the concentration of analog needed to inhibit 50% of this ATPase (IC50). The IC50 of the analogs of the invention is desirably at most 500 nM, preferably at most 200 nM, and more preferably at most 50 nM of analog.
The inhibitory potency of thapsigargin and its analogs was determined as the concentration required to produce 50% inhibition (i.e. IC50) of ^45Ca^2+ uptake to sarcoplasmic reticulum (SR) vesicles prepared from rabbit skeletal muscle by the method of De Meis and Hasselbach (J. Biol. Chem., 246: 4759-4763, 1971). The ^45Ca^2+ uptake assay was as described previously (Christensen, et al., FEBS, 335: 345-348, 1993), with the following modifications: 5 μg/ml of SR protein was incubated at 25EC and free Ca^2+ adjusted to 100 nM using 4 min. uptake time. Under these conditions, Ca^2+ could proceed linearly with time for at least 8 minutes. Measurements of Ca^2+ within TSU cells was determined as described previously (Lin et al., The Prostate, 33:201-207, 1997).
(§1) The IC50 results are mean (n=3)±standard error. The LC50 results are mean (n=5)±standard error. The entry “ND” stands for “not determined”. Clonogenic survival not determined above 10 μM for dBTG. Analogs with −boc have a t-butoxycarbonyl (boc) protected amino group.

[2] = tested on: TSU-Pr1 cells; assay: Clonogenic survival of TSU-Pr1 cells after 72 hours exposure to TG analogs; assay type: cell-based, human; settings: TSU-Pr1, 72 hours exposure; mean (n=5) ± standard error; read-out: LC50 (concentration needed to kill 50% of clonogenic cells)
Description: The primary amine-containing thapsigargin analogs of the invention have non-specific toxicity toward cells. This toxicity is measured as the concentration of analog needed to kill 50% of clonogenic cells (LC50). The LC50 of the analogs of the invention is desirably at most 20 μM, preferably at most 5 μM, and more preferably at most 500 nM of analog.
Percentage clonogenic survival of TSU-Pr1 (2×10^5 cells) following 72 hours of exposure to varying concentrations of TG analogs was performed as described in Martikainen et al. Cancer Res., 51, 4693-4700 (1991).
as §1
The androgen responsive PSA-producing LNCaP and androgen independent PSA non-producing TSU-Pr1 are human prostate cancer lines were obtained from ATCC (Rockville, Md.) and maintained by serial passage in RPMI 1640 media containing 10% fetal calf serum with 100 units/ml penicillin G, and 100 units/ml streptomycin sulfate (antibiotics from M.A. Bioproducts, Walkerville, Md.) as standard media in 5% CO2/95% air at 37° C. The origins and characteristics of the LNCaP and TSU-Pr1 cell lines are described in Horoszewicz, et al., Cancer Res., 43:1809-1818, (1980)and Iizumi, et al., J. Urol, 137: 1304-1306, (1987).

[3] = molecular target: T2, PSA (prostate specific antigen) (Homo sapiens, UniProt P07288); assay: Cleavage of AMC-labelled peptide substrates by purified PSA (fluorescence of released AMC; Lineweaver-Burke kinetics); assay type: biochemical
T2 construct: PSA was purified from human seminal plasma; from tissue; host or cells: human seminal plasma
T2 sequence (P07288 25-261): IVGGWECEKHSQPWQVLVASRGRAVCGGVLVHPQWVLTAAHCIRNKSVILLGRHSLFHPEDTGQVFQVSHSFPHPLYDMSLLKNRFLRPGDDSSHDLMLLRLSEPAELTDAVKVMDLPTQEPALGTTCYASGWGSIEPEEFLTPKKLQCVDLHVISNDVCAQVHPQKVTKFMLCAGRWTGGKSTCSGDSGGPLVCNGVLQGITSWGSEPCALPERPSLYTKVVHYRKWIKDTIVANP
Description: (§2) The peptides discussed herein were custom synthesized by Enzyme Systems Products (Dublin, Calif.) and, after HPLC separation and purification to >95%, the molecular weights were confirmed by mass spectroscopy. All peptides had morpholinocarbonyl protecting the amino terminus and 7-amino-4-methylcoumarin (AMC) attached via an amide bond to the carboxyl group of the carboxy-terminal amino acid. Peptides were first dissolved in distilled water (5 mM) and then diluted into PSA assay buffer (50 mM Tris/0.1M NaCl pH 7.8). The glutamine-AMC peptide had the amino terminus and side chain amine unprotected and was obtained from Bachem (Torrance, Calif.).
(§3) PSA was purified from human seminal plasma as described in Christensson, et al. Eur. J. Biochem. 194:755-765, (1990). Plasmin, urokinase, tissue plasminogen activator (TPA), human plasma and porcine pancreatic kallikrein and a 1-antichymotrypsin were obtained from Calbiochem (San Diego, Calif.). All other proteases were obtained from Sigma Chemical Co. (St. Louis, Mo.). Mouse serum was obtained from East Acres Biologicals (South Bridge, Mass.). Goat and calf sera were obtained from Gibco BRL (Grand Island, N.Y.). Rat serum was obtained in-house from sacrificed animals. Human serum was obtained from volunteers.
(§4) Cleavage was studied by measuring fluorescence change secondary to AMC release. Fluorescence detection was carried out with a Fluoroskan II 96 well fluorometric plate reader (ICN Biomedicals, Costa Mesa, Calif.), with excitation wavelength 355 nm and emission wavelength 460 nm. Data were collected and analyzed using Deltasoft III software (Biometallics, Princeton, N.J.). All reactions were performed at room temperature by the addition of substrate and proteases into PSA buffer, described below, in a final volume of 200 μL. The results were determined from the initial linear increase of fluorescence and were expressed as the picomoles of AMC released per minute based upon comparison to a standard curve of the fluorescence of known amounts of AMC (i.e., fluorescence was linear form 20 to 300 picomoles of AMC). The data were analyzed by Lineweaver-Burke reciprocal plots to determine the Michaelis-Menten constant (i.e., Km) expressed as the amount of substrate needed to saturate half of the enzyme and the catalytic rate constant (i.e., kcat) expressed as the amount of substrate converted to product per time per amount of enzyme.
(§5) Each assay contains 200 picomoles of the particular protease and 0.2 mM concentration of the particular substrate (i.e., 40,000 picomoles/200 μL of assay volume). The amino acid sequences expressed in one letter amino acid code represent the following amino acid sequences in the three letter amino acid code: EHSSKLQ (Glu-His-Ser-Ser-Lys-Leu-Gln; SEQ ID NO:10), QNKISYQ (Gln-Asn-Lys-Ile-Ser-Tyr-Gln; SEQ ID NO:11), ENKISYQ (Glu-Asn-Lys-Ile-Ser-Tyr-Gln; SEQ ID NO:12), and ATKSKQH (Ala-Thr-Lys-Ser-Lys-Gln-His; SEQ ID NO:13). Determinations listed in the table were carried out with substrates at 0.2 mM concentration in the PSA assay buffer (50 mM Tris/0.1M NaCl pH 7.8). The entry “UD” stands for “undetectable” and means that at most, 0.1 pmole of substrate cleavage per minute per 200 pmole protease took place. Asterisks represent experiments not performed. Abbreviations are as follows: PSA (prostate specific antigen), Chymo (chymotrypsin), Urokin (urokinase), TPA (tissue plasminogen activator), Thromb (thrombin), Kallik (human kallikrein, hK1).
The data in Table 2 are the results of kinetic experiments with the peptide substrates used in Example 1. Experimental details are found in Example 1.
The amino acid sequences expressed in one letter amino acid code represent the following amino acid sequences in the three letter amino acid code: EHSSKLQ (Glu-His-Ser-Ser-Lys-Leu-Gln; SEQ ID NO:10), HSSKLQ (His-Ser-Ser-Lys-Leu-Gln; SEQ ID NO:7), SKLQ (Ser-Lys-Leu-Gln; SEQ ID NO:1), and ATKSKQH (Ala-Thr-Lys-Ser-Lys-Gln-His; SEQ ID NO:13). […]

[4] = tested on: Elastase; assay: Peptide-AMC cleavage by purified extracellular protease; assay type: biochemical; settings: 0.2 mM substrate, PSA assay buffer pH 7.8
Description: as §2, §3, §4, §5

[5] = molecular target: T3, Plasmin (Homo sapiens, UniProt P00747); assay: as above; assay type: biochemical; settings: 0.2 mM substrate, PSA assay buffer pH 7.8
T3 construct: purchased Calbiochem
T3 sequence (P00747 581-810 limits assumed, species assumed): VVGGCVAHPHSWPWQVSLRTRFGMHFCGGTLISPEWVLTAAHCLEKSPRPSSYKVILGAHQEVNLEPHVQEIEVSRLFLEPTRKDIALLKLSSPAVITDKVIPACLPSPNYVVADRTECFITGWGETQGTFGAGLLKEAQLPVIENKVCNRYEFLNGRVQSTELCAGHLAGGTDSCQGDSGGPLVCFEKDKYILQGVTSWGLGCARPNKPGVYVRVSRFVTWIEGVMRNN
T3 sequence (P00747 97-580 partner limits assumed, species assumed): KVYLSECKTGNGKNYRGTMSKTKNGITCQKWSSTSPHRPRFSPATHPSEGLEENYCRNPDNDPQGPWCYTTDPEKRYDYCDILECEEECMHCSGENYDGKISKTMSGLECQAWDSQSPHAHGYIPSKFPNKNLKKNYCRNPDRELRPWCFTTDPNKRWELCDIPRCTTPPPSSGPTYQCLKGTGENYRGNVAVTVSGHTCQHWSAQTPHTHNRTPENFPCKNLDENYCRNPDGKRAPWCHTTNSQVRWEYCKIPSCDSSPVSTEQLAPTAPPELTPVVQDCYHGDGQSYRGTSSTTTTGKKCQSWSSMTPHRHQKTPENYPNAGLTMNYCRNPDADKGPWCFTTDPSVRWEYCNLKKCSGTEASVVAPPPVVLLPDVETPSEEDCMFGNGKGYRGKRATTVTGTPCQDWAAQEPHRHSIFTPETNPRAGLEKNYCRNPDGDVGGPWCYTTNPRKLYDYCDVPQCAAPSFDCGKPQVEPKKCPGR
Description: as §2, §3, §4, §5

[6] = tested on: Trypsin; assay: as above; assay type: biochemical; settings: 0.2 mM substrate, PSA assay buffer pH 7.8
Description: as §2, §3, §4, §5

[7] = molecular target: T4, chymotrypsin (Bos taurus, UniProt P00766); assay: as above; assay type: biochemical; settings: 0.2 mM substrate, PSA assay buffer pH 7.8
T4 construct: purchased Sigma Chemical Co
Description: as §2, §3, §4, §5

[8] = tested on: human kallikrein, hK1; assay: as above; assay type: biochemical; settings: 0.2 mM substrate, PSA assay buffer pH 7.8
Description: as §2, §3, §4, §5

[9] = molecular target: T5, thrombin (Homo sapiens, UniProt P00734); assay: as above; assay type: biochemical; settings: 0.2 mM substrate, PSA assay buffer pH 7.8
T5 construct: purchased Sigma Chemical Co
Description: as §2, §3, §4, §5

[10] = molecular target: T6, tissue plasminogen activator (TPA) (Homo sapiens, UniProt P00750); assay: as above; assay type: biochemical; settings: 0.2 mM substrate, PSA assay buffer pH 7.8
T6 construct: purchased Calbiochem
T6 sequence (P00750 36-562, species assumed): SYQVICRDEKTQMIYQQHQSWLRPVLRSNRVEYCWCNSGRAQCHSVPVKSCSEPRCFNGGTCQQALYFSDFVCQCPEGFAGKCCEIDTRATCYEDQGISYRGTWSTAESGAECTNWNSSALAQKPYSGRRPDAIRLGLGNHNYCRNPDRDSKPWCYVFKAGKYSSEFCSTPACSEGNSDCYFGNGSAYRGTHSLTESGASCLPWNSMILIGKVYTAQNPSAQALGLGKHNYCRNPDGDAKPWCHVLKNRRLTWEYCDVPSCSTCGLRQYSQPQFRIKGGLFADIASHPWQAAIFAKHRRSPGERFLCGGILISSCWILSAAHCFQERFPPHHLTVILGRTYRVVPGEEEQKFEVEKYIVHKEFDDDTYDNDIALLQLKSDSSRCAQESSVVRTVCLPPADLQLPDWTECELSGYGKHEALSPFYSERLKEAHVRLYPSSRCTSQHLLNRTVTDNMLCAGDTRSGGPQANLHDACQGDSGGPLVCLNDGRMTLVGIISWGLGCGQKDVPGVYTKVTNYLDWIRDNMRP
Description: as §2, §3, §4, §5

[11] = molecular target: T7, urokinase (Homo sapiens, UniProt P00749); assay: as above; assay type: biochemical; settings: 0.2 mM substrate, PSA assay buffer pH 7.8
T7 construct: purchased Calbiochem
Description: as §2, §3, §4, §5

[12] = Stability of PSA substrates in serum (AMC release); assay type: in vitro ADME; settings: 0.2 mM substrate
Source text: as §3, §4
Because the prodrug can be given systemically via the blood, it is useful to determine the stability of the substrates in sera from a variety of species. The substrates and experimental details are found as described in Example 1.
The amino acid sequences expressed in one letter amino acid code represent the following amino acid sequences in the three letter amino acid code: EHSSKLQ (Glu-His-Ser-Ser-Lys-Leu-Gln; SEQ ID NO:10), QNKISYQ (Gln-Asn-Lys-Ile-Ser-Tyr-Gln; SEQ ID NO:11), ENKISYQ (Glu-Asn-Lys-Ile-Ser-Tyr-Gln; SEQ ID NO:12) and ATKSKQH (Ala-Thr-Lys-Ser-Lys-Gln-His; SEQ ID NO:13). Determinations listed in the table were carried out with substrates at 0.2 mM concentration in the PSA assay buffer (50 mM Tris/0.1M NaCl pH 7.8). AMC is 7-amino-4-methylcoumarin. The human serum used was 100% for each assay. The entry “UD” stands for “undetectable”, and means that not more than 0.01 picomole of substrate per minute was cleaved.

[13] = PSA substrate, PSA assay buffer pH 7.8, Lineweaver-Burke

SMILES | IC50 [1] [nM] | CC50 [2] [nM] | Picomoles of substrate cleaved/minute/200 pmoles of indicated protease: PSA ([3]; 0.2 mM substrate, PSA assay buffer pH 7.8, room temperature) | Kcat [3, 13] [s⁻¹] | Km [3, 13] [µM] | Picomoles of substrate cleaved/minute/200 pmoles of indicated protease: Elastase [4] | Picomoles of substrate cleaved/minute/200 pmoles of indicated protease: Plasmin [5] | Picomoles of substrate cleaved/minute/200 pmoles of indicated protease: Trypsin [6] | Picomoles of substrate cleaved/minute/200 pmoles of indicated protease: Chymo [7] | Picomoles of substrate cleaved/minute/200 pmoles of indicated protease: Kallik [8] | Picomoles of substrate cleaved/minute/200 pmoles of indicated protease: Thromb [9] | Picomoles of substrate cleaved/minute/200 pmoles of indicated protease: TPA [10] | Picomoles of substrate cleaved/minute/200 pmoles of indicated protease: Urokin [11] | picomles AMC released/minute: Calf [12] | picomles AMC released/minute: Fetal Calf [12] [picomoles/minute] | picomles AMC released/minute: Goat [12] [picomoles/minute] | picomles AMC released/minute: Mouse [12] [picomoles/minute] | picomles AMC released/minute: Rat [12] [picomoles/minute] | picomles AMC released/minute: Human ([12]; human serum 100%)
CC=C(C)C(=O)OC1C(C)=C2C(C1OC(=O)CCCCCCC)C(C)(OC(C)=O)CC(OC(=O)C=Cc1ccc(N)cc1)C1(O)C2OC(=O)C1(C)O (stereo not shown) [ACT, 8-O-(4-aminocinnamoyl)-8-O-debutanoylthapsigargin] | 18.7 ± 0.2 | 100 ± 6 | – | – | – | – | – | – | – | – | – | – | – | – | – | – | – | – | –
Cc1cc(=O)oc2cc(NC(=O)[C@H](Cc3c[nH]cn3)NC(=O)[C@H](CCC(N)=O)NC(=O)[C@H](CCCCN)NC(=O)[C@H](CO)NC(=O)[C@H](CCCCN)NC(=O)[C@@H](NC(=O)[C@H](C)NC(=O)N3CCOCC3)[C@@H](C)O)ccc12 [ATKSKQH, Ala-Thr-Lys-Ser-Lys-Gln-His] ({Morpholide-CO}-ATKSKQH-{AMC}) | – | – | 16.0 picomoles/minute/200 pmoles pr | 0.0091 | 310 | UD (at most, 0.1 pmole of substrate cleavage per minute per 200 pmole protease took place) | UD (at most, 0.1 pmole of substrate cleavage per minute per 200 pmole protease took place) | UD (at most, 0.1 pmole of substrate cleavage per minute per 200 pmole protease took place) | 38.8 picomoles/minute/200 pmoles pr | UD (at most, 0.1 pmole of substrate cleavage per minute per 200 pmole protease took place) | 0.2 picomoles/minute/200 pmoles pr | UD (at most, 0.1 pmole of substrate cleavage per minute per 200 pmole protease took place) | UD (at most, 0.1 pmole of substrate cleavage per minute per 200 pmole protease took place) | UD (not more than 0.01 picomole of substrate per minute was cleaved) | 1.19 | 0.35 | 0.60 | 4.31 | UD (not more than 0.01 picomole of substrate per minute was cleaved)

Reference: US6545131B1, “Tissue specific prodrug” (priority 1997, dated 2003)
